Assay results published in ChEMBL document CHEMBL1158195, “Antitumor germacranolides from Anvillea garcinii” (1996).
Converted amounts (≈) assume the structure as drawn. The source made the active and inactive calls. No cut-off for these calls is given here.

Tests used:
MOLT-4 = assay: Cytotoxicity against human MOLT4 cells; type: functional; details: read-out: ED50 (the source's name)
HOP-62 = assay: Cytotoxicity against human HOP62 cells; type: functional; details: read-out: ED50 (the source's name)
ACHN = assay: Cytotoxicity against human ACHN cells; type: functional; details: read-out: ED50 (the source's name)
IGROV-1 = assay: Cytotoxicity against human IGROV1 cells; type: functional; details: read-out: ED50 (the source's name)
SNB-75 = assay: Cytotoxicity against human SNB75 cells; type: functional; details: read-out: ED50 (the source's name)
HCT-116 = assay: Cytotoxicity against human HCT116 cells; type: functional; details: read-out: ED50 (the source's name)
MDA-MB-231 = assay: Cytotoxicity against human MDA-MB-231 cells; type: functional; details: read-out: ED50 (the source's name)
CCRF-CEM = assay: Cytotoxicity against human CCRF-CEM cells; type: functional; details: read-out: ED50 (the source's name)
NCI-H522 = assay: Cytotoxicity against human NCI-H522 cells; type: functional; details: read-out: ED50 (the source's name)
Malme-3M = assay: Cytotoxicity against human MALME-3M cells; type: functional; details: read-out: ED50 (the source's name)
[1] = system: Human immunodeficiency virus; assay: Antiviral activity against HIV in human H9 cells assessed as virus-induced cytopathic effect; type: functional, organism-based
SF-268 = assay: Cytotoxicity against human SF268 cells; type: functional; details: read-out: ED50 (the source's name)
DU-145 = assay: Cytotoxicity against human DU145 cells; type: functional; details: read-out: ED50 (the source's name)
OVCAR-8 = assay: Cytotoxicity against human OVCAR8 cells; type: functional; details: read-out: ED50 (the source's name)
UO-31 = assay: Cytotoxicity against human UO31 cells; type: functional; details: read-out: ED50 (the source's name)
LOX IMVI = assay: Cytotoxicity against human LOXIMVI cells; type: functional; details: read-out: ED50 (the source's name)
SW-620 = assay: Cytotoxicity against human SW620 cells; type: functional; details: read-out: ED50 (the source's name)
PC-3 = assay: Cytotoxicity against human PC3 cells; type: functional; details: read-out: ED50 (the source's name)
T47D = assay: Cytotoxicity against human T47D cells; type: functional; details: read-out: ED50 (the source's name)
BT-549 = assay: Cytotoxicity against human BT549 cells; type: functional; details: read-out: ED50 (the source's name)

## C=C1C(=O)O[C@H]2[C@H]1C[C@H](O)/C(C)=C/CC[C@@]1(C)O[C@@H]21
MOLT-4
  EC50: 0.68 µg/mL (≈ 2.57 µM)
HOP-62
  EC50: 4.57 µg/mL (≈ 17.3 µM)
ACHN
  EC50: 2.21 µg/mL (≈ 8.36 µM)
IGROV-1
  EC50: 3.91 µg/mL (≈ 14.8 µM)
SNB-75
  EC50: 8.53 µg/mL (≈ 32.3 µM)
HCT-116
  EC50: 3.83 µg/mL (≈ 14.5 µM)
MDA-MB-231
  EC50: 4.99 µg/mL (≈ 18.9 µM)
CCRF-CEM
  EC50: 0.8 µg/mL (≈ 3.03 µM)
NCI-H522
  EC50: 0.45 µg/mL (≈ 1.7 µM)
Malme-3M
  EC50: 1.62 µg/mL (≈ 6.13 µM)
[1]
  Activity: inactive
SF-268
  EC50: 7.76 µg/mL (≈ 29.4 µM)
DU-145
  EC50: 5.6 µg/mL (≈ 21.2 µM)
OVCAR-8
  EC50: 4.75 µg/mL (≈ 18 µM)
UO-31
  EC50: 3.88 µg/mL (≈ 14.7 µM)
LOX IMVI
  EC50: 2.46 µg/mL (≈ 9.31 µM)
SW-620
  EC50: 0.55 µg/mL (≈ 2.08 µM)

## C=C1C(=O)O[C@H]2[C@H]1C[C@@H](O)[C@@]1(C)O[C@@H]1CC[C@@]1(C)O[C@@H]21
MOLT-4
  EC50: 1.67 µg/mL (≈ 5.96 µM)
HOP-62
  EC50: 4.82 µg/mL (≈ 17.2 µM)
ACHN
  EC50: 3.84 µg/mL (≈ 13.7 µM)
SNB-75
  EC50: 20.8 µg/mL (≈ 74 µM)
PC-3
  EC50: 7.59 µg/mL (≈ 27.1 µM)
HCT-116
  EC50: 4.96 µg/mL (≈ 17.7 µM)
MDA-MB-231
  EC50: 5.35 µg/mL (≈ 19.1 µM)
CCRF-CEM
  EC50: 1.44 µg/mL (≈ 5.14 µM)
NCI-H522
  EC50: 1.53 µg/mL (≈ 5.46 µM)
Malme-3M
  EC50: 3.28 µg/mL (≈ 11.7 µM)
[1]
  Activity: inactive
SF-268
  EC50: 13.5 µg/mL (≈ 48.1 µM)
DU-145
  EC50: 10.2 µg/mL (≈ 36.5 µM)
OVCAR-8
  EC50: 9.72 µg/mL (≈ 34.7 µM)
UO-31
  EC50: 4.76 µg/mL (≈ 17 µM)
LOX IMVI
  EC50: 3.7 µg/mL (≈ 13.2 µM)
SW-620
  EC50: 3.72 µg/mL (≈ 13.3 µM)

## C=C1C(=O)O[C@H]2[C@H]1C[C@@H](O)/C(C)=C/CC[C@@]1(C)O[C@@H]21
T47D
  EC50: 1.54 µg/mL (≈ 5.83 µM)
MOLT-4
  EC50: 0.94 µg/mL (≈ 3.56 µM)
HOP-62
  EC50: 1.32 µg/mL (≈ 4.99 µM)
ACHN
  EC50: 1.91 µg/mL (≈ 7.23 µM)
IGROV-1
  EC50: 8.63 µg/mL (≈ 32.6 µM)
PC-3
  EC50: 11.6 µg/mL (≈ 44 µM)
HCT-116
  EC50: 1.66 µg/mL (≈ 6.28 µM)
MDA-MB-231
  EC50: 4.49 µg/mL (≈ 17 µM)
BT-549
  EC50: 2.77 µg/mL (≈ 10.5 µM)
CCRF-CEM
  EC50: 0.84 µg/mL (≈ 3.18 µM)
NCI-H522
  EC50: 0.5 µg/mL (≈ 1.89 µM)
Malme-3M
  EC50: 1.07 µg/mL (≈ 4.05 µM)
[1]
  Activity: inactive
SF-268
  EC50: 10.3 µg/mL (≈ 39 µM)
DU-145
  EC50: 6.73 µg/mL (≈ 25.5 µM)
OVCAR-8
  EC50: 4.07 µg/mL (≈ 15.4 µM)
UO-31
  EC50: 7.63 µg/mL (≈ 28.9 µM)
LOX IMVI
  EC50: 1.66 µg/mL (≈ 6.28 µM)
SW-620
  EC50: 1.08 µg/mL (≈ 4.09 µM)

## C=C1C(=O)O[C@H]2[C@H]1CC(=O)/C(C)=C/CC[C@@]1(C)O[C@@H]21
T47D
  EC50: 0.45 µg/mL (≈ 1.72 µM)
MOLT-4
  EC50: 0.07 µg/mL (≈ 0.267 µM)
HOP-62
  EC50: 0.63 µg/mL (≈ 2.4 µM)
ACHN
  EC50: 0.3 µg/mL (≈ 1.14 µM)
IGROV-1
  EC50: 0.94 µg/mL (≈ 3.58 µM)
SNB-75
  EC50: 4.38 µg/mL (≈ 16.7 µM)
PC-3
  EC50: 0.9 µg/mL (≈ 3.43 µM)
HCT-116
  EC50: 0.45 µg/mL (≈ 1.72 µM)
MDA-MB-231
  EC50: 0.17 µg/mL (≈ 0.648 µM)
BT-549
  EC50: 0.34 µg/mL (≈ 1.3 µM)
CCRF-CEM
  EC50: 0.05 µg/mL (≈ 0.191 µM)
NCI-H522
  EC50: 0.15 µg/mL (≈ 0.572 µM)
Malme-3M
  EC50: 0.33 µg/mL (≈ 1.26 µM)
[1]
  Activity: inactive
SF-268
  EC50: 1.73 µg/mL (≈ 6.6 µM)
DU-145
  EC50: 3.3 µg/mL (≈ 12.6 µM)
OVCAR-8
  EC50: 0.78 µg/mL (≈ 2.97 µM)
UO-31
  EC50: 0.28 µg/mL (≈ 1.07 µM)
LOX IMVI
  EC50: 0.11 µg/mL (≈ 0.419 µM)
SW-620
  EC50: 0.21 µg/mL (≈ 0.801 µM)

## C=C1C(=O)O[C@H]2[C@H]1C[C@H](O)[C@@]1(C)O[C@@H]1CC[C@@]1(C)O[C@@H]21
T47D
  EC50: 5.4 µg/mL (≈ 19.3 µM)
MOLT-4
  EC50: 2.83 µg/mL (≈ 10.1 µM)
HOP-62
  EC50: 5.74 µg/mL (≈ 20.5 µM)
ACHN
  EC50: 5.07 µg/mL (≈ 18.1 µM)
IGROV-1
  EC50: 4.17 µg/mL (≈ 14.9 µM)
SNB-75
  EC50: 22.5 µg/mL (≈ 80.3 µM)
PC-3
  EC50: 4.98 µg/mL (≈ 17.8 µM)
HCT-116
  EC50: 4.65 µg/mL (≈ 16.6 µM)
BT-549
  EC50: 3.86 µg/mL (≈ 13.8 µM)
CCRF-CEM
  EC50: 2.43 µg/mL (≈ 8.67 µM)
NCI-H522
  EC50: 0.78 µg/mL (≈ 2.78 µM)
Malme-3M
  EC50: 3.36 µg/mL (≈ 12 µM)
[1]
  Activity: inactive
SF-268
  EC50: 12.1 µg/mL (≈ 43.2 µM)
DU-145
  EC50: 9.66 µg/mL (≈ 34.5 µM)
OVCAR-8
  EC50: 5.32 µg/mL (≈ 19 µM)
UO-31
  EC50: 4.79 µg/mL (≈ 17.1 µM)
SW-620
  EC50: 3.81 µg/mL (≈ 13.6 µM)
